Test results from article PMC7367369, “A small library of chalcones induce liver cancer cell death through Akt phosphorylation inhibition” (Scientific Reports, 2020).

Tests used:
Assay type in all cases: cell-based, human
[1] = tested on: PARP cleavage in Huh7 and Mahlavu cells; experiment: Western blot, PARP cleavage (marker of apoptosis); conditions: 24 h
Description: Human liver cancer cells Mahlavu and Huh7 were treated with the compounds according to the IC50 values obtained from RT-CES experiments or DMSO controls for 72hr. […] We further assessed the effects of the selected chalcones 1, 9, and 11 on the cell cycle progression analysis of liver cancer cells. Human liver cancer cells Mahlavu and Huh7 were treated with the compounds according to the IC50 values obtained from RT-CES for 72 h. Then the DNA in the treated cells were stained with propidium iodide and analyzed with fluorescent-activated cell sorter. […] In order to confirm the induction of apoptosis in human liver cancer cells treated with the chalcones, cleavage of PARP protein (marker of apoptosis) was investigated.
Figure 3 Cell death induced by the chalcones. (A) Nuclear staining of the liver cancer cells treated with the chalcones. Human liver cancer cells (Huh7 and Mahlavu) were treated with the IC50 concentrations of the chalcones 1, 9, 11. After 72 h of incubation with the compounds or DMSO control, Hoechst (33258) staining was performed. Images were taken with fluorescent microscope (×40). Due to the strong cytotoxic activities of the chalcones the number of the cells in objective area was much less than DMSO controls. (B) Cell cycle distribution of liver cancer cells. Huh7 and Mahlavu cells were treated for 72 h with IC50 concentrations of the compounds or DMSO control. […]

p21 in Mahlavu cells = experiment: Western blot, p21 protein levels; conditions: IC50 concentrations, 24 h
Description: (§1) Figure 4 Proteins targeted by the compounds. Human liver cancer cells (Mahlavu) were treated with the IC50 concentrations of the selected compounds or DMSO control for 24 h. […] (B–D) Quantification of the results using ImageJ software. (E) Schematic representation of the molecular mechanism of action of the compounds. Blocked signaling is crossed.
In the literature, it was shown that the anti-cancer effect of chalcones on uterus leiomyoma cells was through an increase in p21 protein[35]. Thus we also examined the levels of p21 in our cells. Furthermore, p21 is also a downstream element of Akt pathway. […] Therefore, the effect on Rb protein, which is also a downstream element of p21, was investigated in the presence of the chalcones 1, 9 and 11.
(§2) Poorly differentiated liver cancer cell line Mahlavu cells were cultured in 100 mm culture dish for 24 h. […] Anti-PARP antibody (Cell Signaling, 9532), pAkt (Ser473) antibody (Cell Signaling, 9271), Akt antibody (Cell Signaling, 9272), pNFkB-p65 (Ser468) antibody (Snat Cruz, sc101750), p21 antibody (Millipore, 05345), pRb (Ser807/811) antibody (Cell Signaling, 9308), Rb antibody (Santa Cruz, sc102), actin antibody (Sigma, A5441) and calnexin antibody (Sigma, C4731) were used as primary antibodies. Anti-rabbit (6154) and anti-mouse (0168) secondary antibodies were used. ImageJ tool ([42]) used for protein band intensity comparison. […]

[2] = tested on: pNFkB-p65 (Ser468) in Mahlavu cells; experiment: Western blot, phosphorylation of NFkB-p65; conditions: IC50 concentrations, 24 h
Description: as §1
NFB is a transcription factor which is a fundamental component of inflammation pathway. This protein has also crucial roles in cell proliferation and apoptosis, thus cancer progression. […] Since the inflammation is one of the hallmarks of cancer, we also investigated the effect of our compounds on NFB protein. […] This form of NFB is the activated form which translocates into the nucleus to function as a transcription factor.
as §2, with “used.” for “used. ImageJ tool ([42]) used for protein band intensity comparison.”

## O=C(/C=C/c1ccc(Cl)cc1)c1ccccc1 [compound 11]
[1]
  PARP cleavage: PARP cleavage was present significantly
p21 in Mahlavu cells
  p21 protein levels: increased significantly
[2]
  phosphorylation of NFB-p65 at Ser468: decreased significantly

## O=C(/C=C/c1ccccc1)c1ccccc1 [compound 9]
[1]
  PARP cleavage: PARP cleavage was present significantly
p21 in Mahlavu cells
  p21 protein levels: increased significantly
[2]
  phosphorylation of NFB-p65 at Ser468: decreased significantly
